Some results are limits rather than exact numbers.

With `O=C1CC[C@](CO)(COCc2ccccc2)O1`, the melting point – broadly, the temperature, or range, at which the solid turns liquid – came out at 78 °C.

The molecule `N#CCOc1cccc2c1c1cccc(F)c1n2Cc1ccccc1` came in with a melting point of 134 °C.

`CC12CCC3C(CCC4CC(O[Si](c5ccccc5)(c5ccccc5)C(C)(C)C)CCC43C)C1CCC2C=C(Br)Br` (configuration not stated): the melting point was in the range of 69 to 71 °C.

In the case of `COc1ccc(-c2cnc3cc4cnn(C[C@@H]5COC(C)(C)O5)c4cc3n2)cc1F`, the melting point lay in the range of 145 to 151 °C.

Molecule `COC(=O)CS(=O)C(C)c1ccc(-c2ccccc2)c(F)c1` (configuration not stated) had a melting point of 161 to 163 °C.

Consider `O=C(O)CC1(c2ccc(Cl)cc2Cl)CNC(=O)C1` (configuration not stated), for which the melting point was 188 to 192 °C.

`OCc1nc2n(n1)-c1ccccc1N(c1cccc(C(F)(F)F)c1)C2` yielded a melting point of 168 to 171 °C.

In the case of `Cc1n[nH]c2cc(-c3ccc4nnn(Cc5ccc6ncccc6c5)c4n3)ccc12`, the melting point lay within 136 to 137 °C.

`CC=CC=CCOC(=O)C1=C(C)NC(C)=C(C(=O)OC(C)(C)C)C1c1cccc([N+](=O)[O-])c1` (configuration not stated): the melting point was in the range of 152 to 154 °C.

In the case of `CNC(=O)Cn1c(-c2ccc([N+](=O)[O-])cc2)nc2cccnc21`, the melting point was > 260 °C.

In the case of `CC12CC(=O)C3C(CCC4CC(O)CCC43C)C1CCC2C(=O)COc1ccc(N)cc1` (configuration not stated), the melting point fell in the range of 179 to 180 °C.

Regarding `O=C(Nc1cc(Cl)cc(Cl)c1)c1ccc(Cl)cc1O`, the melting point is 255 to 256 °C.

As for `CC(C)(C)OC(=O)Nc1ccc(-c2ccccc2F)cc1NC(=O)CC(=O)c1cc(C#N)ccc1F`, the melting point was 170 °C.

As to `Cn1nc(N)nc1NCCCOc1cccc(CN2C(=O)c3ccccc3C2=O)c1`, the melting point was 55 to 57 °C.

The molecule `CCOC(=O)CNC(=O)c1nc2ccc(Cl)nn2n1` came in with a melting point of 175 to 177 °C.

Turning to `O=c1c2c(N3CCNCC3)cc(Cl)cc2n(Cc2ccccc2)c(=O)n1Cc1ccccc1Cl`, the melting point was in the range of 120 to 125 °C.

In turn, `COCCCNCc1ccc(-c2cc3ncnc(Nc4ccc5[nH]ccc5c4)c3s2)cc1` had a melting point of 160 to 175 °C.

In turn, `O=S(Cc1cc(OCc2ccc(C(F)(F)F)cc2)ccn1)c1nc2cscc2[nH]1` (configuration not stated) displayed a melting point of 149 °C.

With `Cc1ccc(-c2[nH]c3ccccc3c(=O)c2Cc2ccncc2)cc1`, the melting point is 264 to 266 °C.

Consider `CCCCCCS(=O)(=O)c1nnnn1CC(=O)OCC`, for which the melting point was in the range of 40 to 42 °C.

`CC(=O)OCC(C)(C)c1ccc(S(N)(=O)=O)cc1` displayed a melting point of 156 to 158 °C.

In turn, `COc1cc(C=NN(C)C)c([N+](=O)[O-])cc1OC` registered a melting point of 143 to 145 °C.

As to `CC1=Nc2c(Br)cc(Br)cc2S(=O)(=O)N1`, the melting point fell in the range of 287 to 289 °C.

`CCOC(=O)C(CC)Cc1ccc(NC(=O)Cc2ccc(-n3cccc3)cc2)cc1` (configuration not stated) came in with a melting point of 100 to 102 °C.

Take `CCOC(OCC)C(N)=O`: the melting point was in the range of 47 to 51 °C.

With `Cc1cc(Cc2cc(C(C)(C)CC(C)(C)C)cc(-n3nc4ccccc4n3)c2O)c(O)c(C(C)(C)C)c1`, the melting point is 148 °C.

The molecule `COCCNC(=O)c1cc(F)cc(-c2cccc3c(F)c(Cc4cccc(C(F)(F)F)c4)sc23)c1` gave a melting point of 109 to 110 °C.

`CS(=O)(=O)NCCCC(c1cc(F)ccc1F)S(=O)(=O)c1ccc(Cl)cc1` (configuration not stated) had a melting point of 128 °C.

`CSC(SC)=C(C#N)C(=O)N(C)C` registered a melting point of 45 to 46 °C.

`CC(=O)NC(=O)c1cn(Cc2ccccc2)nc1OCc1ccc(OCc2nc(-c3ccco3)oc2C)cc1` had a melting point of 193 to 194 °C.

The molecule `Cc1ccc(C(=O)C2=C(O)C(=O)N(c3ncc(S(=O)(=O)N4CCOCC4)s3)C2c2ccc(C(C)C)cc2)cc1` (configuration not stated) yielded a melting point of 247 to 252 °C.

In the case of `O=C(CCCCC1(C(=O)O)CCC1)CCCCC1(C(=O)O)CCC1`, the melting point was 69 to 70 °C.

In turn, `C=CCN(CC=C)c1nc(NC(=O)CCCC(=O)OC)n2oc(=O)nc2n1` came in with a melting point of 164 to 165 °C.

In turn, `CN1C(=O)N(c2cc(Cl)nc(Cl)c2)C(=O)/C1=C\c1ccc(C#N)cc1` yielded a melting point of 230 °C.

With `COCS(=O)(=O)[C@H](C)[C@](O)(Cn1cncn1)c1ccc(F)cc1F`, the melting point lay within 102 to 103 °C.

Regarding `O=C(O)C1=Cc2cc(Oc3ccc(Cl)cc3)ccc2OC1C(F)(F)F` (configuration not stated), the melting point lay within 140 to 142 °C.

`CC(=O)Nc1ccc2cccc(N3CCN(C)CC3)c2c1` gave a melting point of 173 to 177 °C.

`CON(C(=O)c1cn(C)nc1C(F)F)C(C)c1ccc(I)cc1` (configuration not stated) came in with a melting point of 72 to 74 °C.

For `Cc1c(N=C2NCCN2)cccc1N(C)C`, the melting point was 116 to 118 °C.

As to `CC=CCN(Cc1cc(C)ccc1C)c1ncnc2c1ncn2C1OC(CO)C(O)C1O` (configuration not stated), the melting point fell in the range of 125 to 127 °C.

With `O=C1CCCCC1C(C[N+](=O)[O-])c1ccc(OCc2ccccc2)cc1` (racemic), the melting point fell in the range of 143 to 144 °C.

`CCOCc1nc2c(N)nc3cc(CCC(=O)N4CCOCC4)ccc3c2n1CC(C)(C)O` returned a melting point of 118 to 119 °C.

`CNC(=O)C(C)Oc1ccc(Oc2ccc(C(F)(F)F)cc2)cc1` (configuration not stated): the melting point was in the range of 129 to 133 °C.

Molecule `Cc1cc(C)c(COc2cccnc2NC(=S)Nc2ccc(Cl)cc2)c(C)c1` came in with a melting point of 180 to 182 °C.

In turn, `Cc1noc(C)c1-c1ccc(C[C@H](NC(=O)c2c(Cl)cccc2Cl)C(=O)O)cc1` came in with a melting point of 152 °C.

For `CNC(=O)c1cc2c(c(F)c1F)N(c1ccc(I)cc1C)COC2=O`, the melting point lay within 219 to 223 °C.

Consider `C=C(CCCCCCCCC)C(N)=O`, for which the melting point is 80 to 81 °C.

`CC1CC(=O)NN=C1c1ccc2[nH]c(-c3ccncc3)cc2c1` (configuration not stated): the melting point is 301 to 303 °C.

For `COc1ccc(N=Nc2ccc(O)c(C(=O)Nc3ccc(OC)c(-c4nn(C(C)=O)c5cc(C)nn45)c3)c2)cc1`, the melting point lay in the range of 282 to 283 °C.

On to `Cc1cc(-c2c(-c3ccc(S(N)(=O)=O)cc3)cnn(-c3ccc(F)c(Cl)c3)c2=O)ccc1F`, for which the melting point lay within 243 to 245 °C.

With `CCOC(=O)c1cn(C2CC2)c2cc(-n3cccc3)c(F)cc2c1=O`, the melting point was in the range of 216 to 219 °C.

For `CC(C)(C)C(=O)c1ccc(C(=O)N[C@@H](Cc2ccccc2)C(N)=O)cc1`, the melting point lay in the range of 120 to 123 °C.

Take `COc1cccc(/C(=C/C=C/C(=O)O)c2cccc(F)c2)c1`: the melting point fell in the range of 151 to 153 °C.

As to `CCOC(=O)C(Cc1ccc(Cl)c(OC(F)(F)C(F)F)c1)C(=O)c1ccc(F)cc1` (configuration not stated), the melting point is 73 to 74 °C.

With `O=C(O)Cc1ccc2c(c1)sc1cccc(Cl)c12`, the melting point lay within 203 to 206 °C.

Molecule `CCOc1nccnn1` came in with a melting point of 95 to 99 °C.

`N#CC(c1ccccc1)(c1ccccc1)n1ccnc1` showed a melting point of 95 to 98 °C.

On to `COc1ccc(C=O)c(F)c1OC`, for which the melting point fell in the range of 52 to 54 °C.

Consider `CC(C)(C)C(=O)C(O)NC(=O)c1ccc(Cl)cc1` (configuration not stated), for which the melting point worked out at 130 °C.

`Cc1cc(SC(C)C)c(NC(=O)CSc2nc3ccccc3o2)c(SC(C)C)n1` yielded a melting point of 151 to 152 °C.

In the case of `CC(C)c1ccnc(C(=O)c2[nH]c3ccc(Cl)cc3c2CC(=O)O)c1`, the melting point fell in the range of 227 to 228 °C.

Turning to `CCOC(=O)c1ccc(C#CC(O)c2cc(C(C)(C)C)cc(C(C)(C)C)c2OC)cc1` (configuration not stated), the melting point was 101 to 103 °C.

The values are drawn from a melting point compilation (Tetko et al.; mined from patent text by program, amines drawn as free bases though some values may be those of a salt).
